Measurements reported in PMC11235165, “Delocalized quinolinium-macrocyclic peptides, an atypical chemotype for CNS penetration” (Science Advances, 2024).
Read-outs that look alike come from different tables or passages of the source.

Columns and labels:
Cyclophilin A (CypA) = Cyclophilin A (CypA) (Homo sapiens, UniProt P62937); assay: Fluorescence polarization cyclophilin A binding assay
[1] = test system: mitochondrial permeability transition pore (mPTP); assay: Calcium retention capacity (CRC) assay in isolated liver mitochondria; type: biochemical, rat; settings: Table S4 / Fig. S2; rat liver mitochondria; 500 nM; (Treated-NonTreated)/NonTreated)*100
[2] = Pharmacokinetic study, plasma and brain levels by LC-MS/MS; settings: ABH, mouse, plasma, ip, Plasma (ng/mL), mice; 4 h;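 further: ABH mice, four per group, dosed intraperitoneally, plasma and brain taken at set times after euthanasia, drug levels quantified by LC-MS/MS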
[3] = Table S3, 4-aza substituted quinolinium salts, fluorescence polarization, read-out: Ki (nM) CypA
[4] = Table S2, 4-oxa substituted and O-linked quinolinium salts, fluorescence polarization, read-out: Ki (nM), Cyclophilin A binding affinity

Cyclophilin A (CypA), sequence (P62937 whole entry): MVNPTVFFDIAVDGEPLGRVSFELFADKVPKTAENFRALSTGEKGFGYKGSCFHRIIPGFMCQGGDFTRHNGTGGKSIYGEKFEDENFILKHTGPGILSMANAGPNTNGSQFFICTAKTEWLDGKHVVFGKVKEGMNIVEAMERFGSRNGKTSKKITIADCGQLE

Compound | Ki (Cyclophilin A (CypA); [3]) | Ki (Cyclophilin A (CypA); [4]) | CRC inhibition % [1] | further results
CC[C@@H]1NC(=O)[C@H]([C@H](O)[C@H](C)CC=CCCC[n+]2ccc(N(C)Cc3ccccc3)c3ccccc32)N(C)C(=O)[C@H](C(C)C)N(C)C(=O)[C@H](CC(C)C)N(C)C(=O)[C@H](CC(C)C)N(C)C(=O)[C@@H](C)NC(=O)[C@H](C)NC(=O)[C@H](CC(C)C)N(C)C(=O)[C@H](C(C)C)NC(=O)[C@H](CC(C)C)N(C)C(=O)CN(C)C1=O [JP1-028] | 35 ± 3 nM |  |  | 
CC[C@@H]1NC(=O)[C@H]([C@H](O)[C@H](C)CC=CCCC[n+]2ccc(NCCc3ccccc3)c3ccccc32)N(C)C(=O)[C@H](C(C)C)N(C)C(=O)[C@H](CC(C)C)N(C)C(=O)[C@H](CC(C)C)N(C)C(=O)[C@@H](C)NC(=O)[C@H](C)NC(=O)[C@H](CC(C)C)N(C)C(=O)[C@H](C(C)C)NC(=O)[C@H](CC(C)C)N(C)C(=O)CN(C)C1=O [JP1-037H] | 17 ± 5 nM |  | 26.53% | 
CC[C@@H]1NC(=O)[C@H]([C@H](O)[C@H](C)CC=CCCC[n+]2ccc(N(C)CCc3ccccc3)c3ccccc32)N(C)C(=O)[C@H](C(C)C)N(C)C(=O)[C@H](CC(C)C)N(C)C(=O)[C@H](CC(C)C)N(C)C(=O)[C@@H](C)NC(=O)[C@H](C)NC(=O)[C@H](CC(C)C)N(C)C(=O)[C@H](C(C)C)NC(=O)[C@H](CC(C)C)N(C)C(=O)CN(C)C1=O [JP1-037] | 4.4 ± 2 nM |  | 20.61% | 
CC[C@@H]1NC(=O)[C@H]([C@H](O)[C@H](C)CC=CCCC[n+]2ccc(N3CCCC3)c3ccccc32)N(C)C(=O)[C@H](C(C)C)N(C)C(=O)[C@H](CC(C)C)N(C)C(=O)[C@H](CC(C)C)N(C)C(=O)[C@@H](C)NC(=O)[C@H](C)NC(=O)[C@H](CC(C)C)N(C)C(=O)[C@H](C(C)C)NC(=O)[C@H](CC(C)C)N(C)C(=O)CN(C)C1=O [JP1-159] |  |  |  | Ki (Cyclophilin A (CypA); Table S7, focused SAR set, read-out: CypA Ki): 104 nM
CC[C@@H]1NC(=O)[C@H]([C@H](O)[C@H](C)C/C=C/CCC[n+]2cccc3ccccc32)N(C)C(=O)[C@H](C(C)C)N(C)C(=O)[C@H](CC(C)C)N(C)C(=O)[C@H](CC(C)C)N(C)C(=O)[C@@H](C)NC(=O)[C@H](C)NC(=O)[C@H](CC(C)C)N(C)C(=O)[C@H](C(C)C)NC(=O)[C@H](CC(C)C)N(C)C(=O)CN(C)C1=O [JW47, reference compound] |  |  |  | level at 4 h [2]: 4900 ng/mL

Now from value to compound, other results behind:

Ki (Cyclophilin A (CypA); [3]) | Ki (Cyclophilin A (CypA); [4]) | Compound | CRC inhibition % [1] | further results
 | 267 ± 16 nM | CC[C@@H]1NC(=O)[C@H]([C@H](O)[C@H](C)CC=CCCC[n+]2ccc(OCCc3ccccc3)c3ccccc32)N(C)C(=O)[C@H](C(C)C)N(C)C(=O)[C@H](CC(C)C)N(C)C(=O)[C@H](CC(C)C)N(C)C(=O)[C@@H](C)NC(=O)[C@H](C)NC(=O)[C@H](CC(C)C)N(C)C(=O)[C@H](C(C)C)NC(=O)[C@H](CC(C)C)N(C)C(=O)CN(C)C1=O [TWH30] | 27.89% | 
 | 218 ± 57 nM | CC[C@@H]1NC(=O)[C@H]([C@H](O)[C@H](C)CC=CCCCOc2cc[n+](CCCc3ccccc3)c3ccccc23)N(C)C(=O)[C@H](C(C)C)N(C)C(=O)[C@H](CC(C)C)N(C)C(=O)[C@H](CC(C)C)N(C)C(=O)[C@@H](C)NC(=O)[C@H](C)NC(=O)[C@H](CC(C)C)N(C)C(=O)[C@H](C(C)C)NC(=O)[C@H](CC(C)C)N(C)C(=O)CN(C)C1=O [TWH43] | 16.28% | 
 | 158 ± 17 nM | CC[C@@H]1NC(=O)[C@H]([C@H](O)[C@H](C)CC=CCCC[n+]2ccc(OCCCc3ccc(OC)cc3)c3ccccc32)N(C)C(=O)[C@H](C(C)C)N(C)C(=O)[C@H](CC(C)C)N(C)C(=O)[C@H](CC(C)C)N(C)C(=O)[C@@H](C)NC(=O)[C@H](C)NC(=O)[C@H](CC(C)C)N(C)C(=O)[C@H](C(C)C)NC(=O)[C@H](CC(C)C)N(C)C(=O)CN(C)C1=O [TWH44] | 16.95% | 
 | 265 ± 111 nM | CC[C@@H]1NC(=O)[C@H]([C@H](O)[C@H](C)C/C=C/CCCOc2cc[n+](CCc3ccccc3)c3ccccc23)N(C)C(=O)[C@H](C(C)C)N(C)C(=O)[C@H](CC(C)C)N(C)C(=O)[C@H](CC(C)C)N(C)C(=O)[C@@H](C)NC(=O)[C@H](C)NC(=O)[C@H](CC(C)C)N(C)C(=O)[C@H](C(C)C)NC(=O)[C@H](CC(C)C)N(C)C(=O)CN(C)C1=O [TWH46] |  | 
